Assay results reported in ChEMBL document CHEMBL1135012, “Reductively activated disulfide prodrugs of paclitaxel” (Bioorg Med Chem Lett, 2002).

Tests used:
[1] = The half-life period for the release of paclitaxel after cyclization was determined for the compound; assay type: ADME
[2] = Percentage tumor cure rate in when treated with 125 mg/Kg dose in athymic nude mice; assay type: functional, Mus musculus
[3] = Compound along with dithiothreitol (DTT) was evaluated for its cytotoxicity against L2987 lung carcinoma cells; assay type: functional, cell-based; details: Homo sapiens
[4] = Compound was evaluated for its cytotoxicity against L2987 lung carcinoma cells; assay type: functional, cell-based; details: Homo sapiens
[5] = Dose required for the compound to elicit the Antitumor activity: No effective activity; assay type: functional
[6] = Maximum Tolerated Dose required for the compound to regress the tumors for the Antitumor activity: No effective activity; assay type: functional

Structure (SMILES)	T1/2 [1] [min]	Tumor cure [2] [%]	IC50 [3] [nM]	IC50 [4] [µM]	Dose [5] [mg/kg]	Dose [6] [mg/kg]
CC(=O)O[C@H]1C(=O)[C@@]2(C)[C@H]([C@H](OC(=O)c3ccccc3)[C@]3(O)C[C@H](OC(=O)[C@H](OC(=O)C(C)(C)CCSSC[C@H](C)C(=O)N4CCC[C@@H]4C(=O)O)[C@@H](NC(=O)c4ccccc4)c4ccccc4)C(C)=C1C3(C)C)[C@]1(OC(C)=O)CO[C@@H]1C[C@@H]2O	25	60	2300	130	–	–
CC(=O)O[C@H]1C(=O)[C@@]2(C)[C@H]([C@H](OC(=O)c3ccccc3)[C@]3(O)C[C@H](OC(=O)[C@H](OC(=O)C(C)(C)CCSSc4ccccn4)[C@@H](NC(=O)c4ccccc4)c4ccccc4)C(C)=C1C3(C)C)[C@]1(OC(C)=O)CO[C@@H]1C[C@@H]2O	4	–	200	6.2	125	–
CC(=O)O[C@H]1C(=O)[C@@]2(C)[C@H]([C@H](OC(=O)c3ccccc3)[C@]3(O)C[C@H](OC(=O)[C@H](O)[C@@H](NC(=O)c4ccccc4)c4ccccc4)C(C)=C1C3(C)C)[C@]1(OC(C)=O)CO[C@@H]1C[C@@H]2O [PACLITAXEL]	–	–	–	0.2	–	30

More lines, main results first:

T1/2 [1] [min]	Structure (SMILES)	Tumor cure [2] [%]	IC50 [3] [nM]	IC50 [4] [µM]	Dose [5] [mg/kg]	Dose [6] [mg/kg]
12	CC(=O)O[C@H]1C(=O)[C@@]2(C)[C@H]([C@H](OC(=O)c3ccccc3)[C@]3(O)C[C@H](OC(=O)[C@H](OC(=O)C(C)(C)CCSSC4OC(CO)C(O)C(O)C4O)C(NC(=O)c4ccccc4)c4ccccc4)C(C)=C1C3(C)C)[C@]1(OC(C)=O)CO[C@@H]1C[C@@H]2O (stereo partly drawn)	–	200	5.7	85	–
> 60	CC(=O)O[C@H]1C(=O)[C@@]2(C)[C@H]([C@H](OC(=O)c3ccccc3)[C@]3(O)C[C@H](OC(=O)[C@H](OC(=O)C(C)(C)CCSSCC(NC(=O)CCC(N)C(=O)O)C(=O)NCC(=O)O)[C@@H](NC(=O)c4ccccc4)c4ccccc4)C(C)=C1C3(C)C)[C@]1(OC(C)=O)CO[C@@H]1C[C@@H]2O (stereo partly drawn)	–	400	10.1	150	–
